Consider 2 molecules from patent US9434747B2, “Methods of treating diabetes” (Medivation Technologies, Inc., priority 2011, dated 2016).

SMILES strings stand for the structures.

The target of test [1] is T1, human recombinant adrenergic α2B receptor (Homo sapiens, UniProt P18089).
T1 construct: expressed in transfected cells; host or cells: Chinese hamster ovary (CHO) K1 cells
T1 sequence (P18089 1-450): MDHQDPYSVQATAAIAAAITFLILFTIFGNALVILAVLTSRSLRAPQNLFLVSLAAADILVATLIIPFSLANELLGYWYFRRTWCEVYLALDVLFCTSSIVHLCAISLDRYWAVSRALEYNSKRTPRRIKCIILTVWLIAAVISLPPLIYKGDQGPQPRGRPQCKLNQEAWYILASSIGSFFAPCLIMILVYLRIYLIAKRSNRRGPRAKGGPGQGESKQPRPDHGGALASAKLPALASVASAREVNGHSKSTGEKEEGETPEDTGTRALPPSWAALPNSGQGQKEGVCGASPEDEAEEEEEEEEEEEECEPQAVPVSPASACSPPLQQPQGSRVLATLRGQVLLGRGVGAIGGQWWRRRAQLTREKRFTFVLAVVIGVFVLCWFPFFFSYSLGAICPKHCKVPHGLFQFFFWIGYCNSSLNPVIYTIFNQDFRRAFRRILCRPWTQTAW
The experiment in a line: Radioligand binding assay, adrenergic α2B ([3H]Rauwolscine). As to conditions: compound at 0.1 μM; 2.5 nM [3H]Rauwolscine; CHO-K1 cells; read-out: Percentage inhibition of ligand binding, Adrenergic α2B. On the procedure: To evaluate in radioligand binding assays the activity of compounds, human recombinant adrenergic α2B receptor expressed in Chinese hamster ovary (CHO) K1 cells (Uhlen, S. et al, Eur. J. Pharmacol. 343(1):93, 1998) in a modified Tris-HCl buffer (50 mM Tris-HCl, pH 7.4, 12.5 mM MgCl2, 1 mM EDTA, 0.2% BSA) was used. Compounds were incubated with 2.5 nM [^3H]Rauwolscine for 60 min at 25° C. Non-specific binding was estimated in the presence of 10 μM Prazosin. Receptor proteins were filtered and washed, the filters were then counted to determine [^3H]Rauwolscine specifically bound. Compounds were screened at 1 μM or lower, using 1% DMSO as vehicle. Compounds were tested in this biochemical assay and percent inhibition of specific binding was determined. Biochemical assay results are presented as the percent inhibition of specific binding in Tables B1A-B1D.

Test [2] deals with T2, rat adrenergic α1B receptor (Rattus norvegicus, UniProt P15823).
T2 construct: rat adrenergic α1B receptor obtained from Wistar Rat liver; from tissue; host or cells: Wistar rat liver
T2 sequence (P15823 1-515): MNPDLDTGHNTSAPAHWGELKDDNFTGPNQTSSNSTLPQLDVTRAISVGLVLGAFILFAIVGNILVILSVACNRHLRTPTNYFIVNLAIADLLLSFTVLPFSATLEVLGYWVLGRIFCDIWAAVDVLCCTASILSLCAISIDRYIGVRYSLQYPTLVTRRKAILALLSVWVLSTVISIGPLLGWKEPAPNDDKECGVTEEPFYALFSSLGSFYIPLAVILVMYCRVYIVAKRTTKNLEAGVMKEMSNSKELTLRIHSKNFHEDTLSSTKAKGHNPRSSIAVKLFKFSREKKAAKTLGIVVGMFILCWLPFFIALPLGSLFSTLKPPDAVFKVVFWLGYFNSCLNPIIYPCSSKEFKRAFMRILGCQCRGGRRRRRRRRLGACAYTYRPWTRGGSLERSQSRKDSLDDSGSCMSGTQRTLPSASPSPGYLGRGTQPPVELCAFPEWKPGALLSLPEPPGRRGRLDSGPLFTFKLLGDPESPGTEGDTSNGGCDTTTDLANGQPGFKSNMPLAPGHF
The experiment in a line: Radioligand binding assay, adrenergic α1B ([3H]Prazosin). The following applies: compound at 0.1 μM; 0.25 nM [3H]Prazosin; Wistar rat liver; read-out: Percentage inhibition of ligand binding, Adrenergic α1B. As for the experimental part:
To evaluate in radioligand binding assays the activity of compounds, rat adrenergic α1B receptor obtained from Wistar Rat liver (Garcia-S'ainz, J. et al, Biochem. Biophys. Res. Commun. 186:760, 1992; Michel, A. et al, Br. J. Pharmacol. 98:883, 1989) in a modified Tris-HCl buffer (50 mM Tris-HCl buffer, pH 7.4, 0.5 mM EDTA) was used. Compounds were incubated with 0.25 nM [^3H]Prazosin for 60 min at 25° C. Non-specific binding was estimated in the presence of 10 μM phentolamine. Receptor proteins were filtered and washed, the filters were then counted to determine [^3H]Prazosin specifically bound. Compounds were screened at 1 μM or lower, using 1% DMSO as vehicle. Compounds were tested in this biochemical assay and percent inhibition of specific binding was determined. Biochemical assay results are presented as the percent inhibition of specific binding in Tables B1A-B1D.

The target in test [3] is T3, human recombinant adrenergic α2A receptor (Homo sapiens, UniProt P08913).
T3 construct: expressed in transfected cells; host or cells: insect Sf9 cells
T3 sequence (P08913 1-465): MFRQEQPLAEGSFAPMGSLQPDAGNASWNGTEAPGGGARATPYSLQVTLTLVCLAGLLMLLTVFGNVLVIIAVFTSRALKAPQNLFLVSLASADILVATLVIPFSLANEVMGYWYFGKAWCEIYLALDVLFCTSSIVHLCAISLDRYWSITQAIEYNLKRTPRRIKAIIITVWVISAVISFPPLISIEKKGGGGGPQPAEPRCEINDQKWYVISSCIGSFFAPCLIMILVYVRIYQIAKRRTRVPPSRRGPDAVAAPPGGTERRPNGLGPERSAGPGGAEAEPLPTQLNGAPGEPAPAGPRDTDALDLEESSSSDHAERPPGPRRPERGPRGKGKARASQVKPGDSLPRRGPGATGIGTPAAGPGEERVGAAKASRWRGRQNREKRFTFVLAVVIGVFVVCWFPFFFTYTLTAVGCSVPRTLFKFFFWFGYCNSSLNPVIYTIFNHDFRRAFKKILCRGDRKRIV
The experiment in a line: Radioligand binding assay, adrenergic α2A ([3H]MK-912). As to conditions: compound at 0.1 μM; 1 nM [3H]MK-912; Sf9 cells; read-out: Percentage inhibition of ligand binding, Adrenergic α2A. On the procedure:
To evaluate in radioligand binding assays the activity of compounds, human recombinant adrenergic α2A receptor expressed in insect Sf9 cells (Uhlen, S. et al, J. Pharmacol. Exp. Ther. 271:1558, 1994) in a modified Tris-HCl buffer (50 mM Tris-HCl, pH 7.4, 12.5 mM MgCl2, 2 mM EDTA) was used. Compounds were incubated with 1 nM [^3H]MK-912 for 60 min at 25° C. MK912 is (2S-trans)-1,3,4,5′,6,6′,7,12b-octahydro-1′,3′-dimethyl-spiro[2H-benzofuro[2,3-a]quinolizine-2,4′(1′H)-pyrimidin]-2′(3′H)-one hydrochloride. Non-specific binding was estimated in the presence of 10 μM WB-4101 (2-(2,6-Dimethoxyphenoxyethyl)aminomethyl-1,4-benzodioxane hydrochloride). Receptor proteins were filtered and washed, the filters were then counted to determine [^3H]MK-912 specifically bound. Compounds were screened at 1 μM or lower, using 1% DMSO as vehicle. Compounds were tested in this biochemical assay and percent inhibition of specific binding was determined. Biochemical assay results are presented as the percent inhibition of specific binding in Tables B1A-B1D.

The target in test [4] is T4, human recombinant adrenergic α1D receptor (Homo sapiens, UniProt P25100).
T4 construct: expressed in transfected cells; host or cells: human embryonic kidney (HEK-293) cells
T4 sequence (P25100 1-572): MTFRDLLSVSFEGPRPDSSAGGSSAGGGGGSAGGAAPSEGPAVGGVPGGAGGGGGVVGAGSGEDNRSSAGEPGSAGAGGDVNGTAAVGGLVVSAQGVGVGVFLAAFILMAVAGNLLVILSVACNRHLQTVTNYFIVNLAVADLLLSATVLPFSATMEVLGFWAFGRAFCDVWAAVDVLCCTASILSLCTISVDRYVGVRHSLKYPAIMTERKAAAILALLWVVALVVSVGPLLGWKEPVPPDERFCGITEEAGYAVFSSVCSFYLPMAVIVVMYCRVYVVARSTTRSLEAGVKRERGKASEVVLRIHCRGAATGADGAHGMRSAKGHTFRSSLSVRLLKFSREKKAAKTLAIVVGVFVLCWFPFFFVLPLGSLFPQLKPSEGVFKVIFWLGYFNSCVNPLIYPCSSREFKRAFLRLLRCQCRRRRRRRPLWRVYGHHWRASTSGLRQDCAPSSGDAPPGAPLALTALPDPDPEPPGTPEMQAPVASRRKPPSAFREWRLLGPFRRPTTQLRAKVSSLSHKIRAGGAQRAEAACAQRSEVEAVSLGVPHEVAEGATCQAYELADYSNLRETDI
The experiment in a line: Radioligand binding assay, adrenergic α1D ([3H]Prazosin). As to conditions: compound at 0.1 μM; 0.6 nM [3H]Prazosin; HEK-293 cells; read-out: Percentage inhibition of ligand binding, Adrenergic α1D. On the procedure:
To evaluate in radioligand binding assays the activity of compounds of the invention, human recombinant adrenergic α1D receptor expressed in human embryonic kidney (HEK-293) cells (Kenny, B. et al, Br. J. Pharmacol. 115(6):981, 1995) in a 50 mM Tris-HCl buffer, pH 7.4, was used. Compounds were incubated with 0.6 nM [3H]Prazosin for 60 min at 25° C. Non-specific binding was estimated in the presence of 10 μM phentolamine. Receptor proteins were filtered and washed, the filters were then counted to determine [3H]Prazosin specifically bound. Compounds were screened at 1 μM or lower, using 1% DMSO as vehicle. Biochemical assay results are presented as the percent inhibition of specific binding in Tables B1A-B1D.

As to `Cc1cc(-c2ccc(F)cc2)c2[nH]c3c(c2c1)CN(C)CC3` [Compound A7], the inhibition at 0.1 µM in test [1] was -9%; in test [2], 2%; in test [3] it was 10%; in test [4], 4%.

Consider `Cc1cc2c3c(c1)c1c(n3CC2c2ccc(C)nc2)CCN(C)C1` (centres unmarked) [Compound B210], for which the inhibition at 0.1 µM in test [1] was 14%.

In general, inhibition refers to the drop in the measured response relative to a control, in per cent.
